According to PubChem BioAssay (NCI):
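Following 48 hours of exposure in 96-well plates, responses at five concentrations were used to interpolate endpoints linearly. TGI: total growth inhibition.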

Assays:
Experiment in all cases: growth of human tumour cells (NCI), 48 h
[1] = system: HOP-62 NSCLC
[2] = system: OVCAR-3 ovarian
[3] = system: HS 578T breast
[4] = system: DU-145 prostate
[5] = system: SW-620 colon
[6] = system: NCI-H226 lung
[7] = system: PC-3 prostate
[8] = system: SF-268 CNS
[9] = system: SR leukemia
[10] = system: UO-31 renal
[11] = system: SK-MEL-5 melanoma
[12] = system: NCI-H460 lung
[13] = system: TK-10 renal
[14] = system: ACHN renal
[15] = system: LOX IMVI melanoma
[16] = system: RXF 393 renal
[17] = system: SF-295 CNS
[18] = system: MDA-N
[19] = system: SK-MEL-2 melanoma
[20] = system: HCT-116 colon
[21] = system: CAKI-1 renal
[22] = system: IGROV1 ovarian
[23] = system: CCRF-CEM leukemia
[24] = system: A498 renal
[25] = system: NCI-H23 lung
[26] = system: RPMI-8226 leukemia
[27] = system: U251 CNS
[28] = system: MCF7 breast
[29] = system: SNB-19 CNS
[30] = system: A549 NSCLC
[31] = system: MOLT-4 leukemia
[32] = system: SN12C renal
[33] = system: OVCAR-8 ovarian
[34] = system: NCI-H522 lung
[35] = system: MALME-3M melanoma
[36] = system: OVCAR-4 ovarian
[37] = system: HT29 colon
[38] = system: SK-MEL-28 melanoma
[39] = system: T-47D breast
[40] = system: SF-539 CNS
[41] = system: MDA-MB-435
[42] = system: SNB-75 CNS
[43] = system: HCT-15 colon
[44] = system: HCC-2998 colon
[45] = system: SK-OV-3 ovarian
[46] = system: EKVX NSCLC
[47] = system: COLO 205 colon
[48] = system: KM12 colon
[49] = system: HL-60(TB) leukemia
[50] = system: UACC-62 melanoma
[51] = system: OVCAR-5 ovarian
[52] = system: M14 melanoma
[53] = system: NCI/ADR-RES ovarian
[54] = system: MDA-MB-231 breast
[55] = system: BT-549 breast
[56] = system: K-562 leukemia
[57] = system: UACC-257 melanoma
[58] = system: 786-0 renal
[59] = system: HOP-92 NSCLC

With `CON(C)c1nc(N)c(C#N)c(C#N)c1C#N` the TGI [1] was > 10 µM, the TGI [2] was > 10 µM and the TGI [3] was > 10 µM. For the same compound, the TGI [4] was > 10 µM, the TGI [5] was > 10 µM and the TGI [6] was > 10 µM. For the same compound, the TGI [7] was > 10 µM, the TGI [8] was > 10 µM and the TGI [9] was > 10 µM. The TGI [10] was > 10 µM, the TGI [11] was > 10 µM and the TGI [12] was > 10 µM. The TGI [13] was > 10 µM, the TGI [14] was > 10 µM and the TGI [15] was > 10 µM. The TGI [16] was > 10 µM, the TGI [17] was > 10 µM and the TGI [18] was > 10 µM. For the same compound, the TGI [19] was > 10 µM, the TGI [20] was > 10 µM and the TGI [21] was > 10 µM. The TGI [22] was > 10 µM, the TGI [23] was > 10 µM and the TGI [24] was > 10 µM. The TGI [25] was > 10 µM, the TGI [26] was > 10 µM and the TGI [27] was > 10 µM. For the same compound, the TGI [28] was > 10 µM, the TGI [29] was > 10 µM and the TGI [30] was > 10 µM. The TGI [31] was > 10 µM, the TGI [32] was > 10 µM and the TGI [33] was > 10 µM. For the same compound, the TGI [34] was > 10 µM, the TGI [35] was > 10 µM and the TGI [36] was > 10 µM. For the same compound, the TGI [37] was > 10 µM, the TGI [38] was > 10 µM and the TGI [39] was > 10 µM. For the same compound, the TGI [40] was > 10 µM, the TGI [41] was > 10 µM and the TGI [42] was > 10 µM. The TGI [43] was > 10 µM, the TGI [44] was > 10 µM and the TGI [45] was > 10 µM. For the same compound, the TGI [46] was > 10 µM, the TGI [47] was > 10 µM and the TGI [48] was > 10 µM. For the same compound, the TGI [49] was > 10 µM, the TGI [50] was > 10 µM and the TGI [51] was > 10 µM. For the same compound, the TGI [52] was > 10 µM, the TGI [53] was > 10 µM and the TGI [54] was > 10 µM.

In the case of `c1ccc(-c2csc3c2-n2cccc2C3N2CCCC2)cc1` (stereo not drawn), the TGI [55] is reported as 34.4 µM, the TGI [56] is reported as > 100 µM and the TGI [1] is reported as > 100 µM. The TGI [57] was 39.9 µM, the TGI [58] was > 100 µM and the TGI [2] was > 100 µM. For the same compound, the TGI [3] was > 100 µM, the TGI [4] was > 100 µM and the TGI [5] was > 100 µM. The TGI [6] was > 100 µM, the TGI [7] was > 100 µM and the TGI [8] was 78.7 µM. The TGI [9] was > 100 µM, the TGI [10] was > 100 µM and the TGI [11] was 22.6 µM. The TGI [12] was > 100 µM, the TGI [13] was 99.7 µM and the TGI [14] was > 100 µM. For the same compound, the TGI [15] was > 100 µM, the TGI [16] was > 100 µM and the TGI [17] was > 100 µM. The TGI [18] was > 100 µM, the TGI [19] was > 100 µM and the TGI [20] was > 100 µM. For the same compound, the TGI [21] was > 100 µM, the TGI [22] was > 100 µM and the TGI [23] was > 100 µM. The TGI [24] was > 100 µM, the TGI [25] was > 100 µM and the TGI [26] was > 100 µM. The TGI [27] was > 100 µM, the TGI [28] was > 100 µM and the TGI [29] was > 100 µM. The TGI [30] was > 100 µM, the TGI [31] was > 100 µM and the TGI [32] was > 100 µM. The TGI [33] was > 100 µM, the TGI [34] was > 100 µM and the TGI [35] was > 100 µM. The TGI [36] was > 100 µM, the TGI [37] was > 100 µM and the TGI [38] was > 100 µM. The TGI [59] was 81.9 µM, the TGI [40] was > 100 µM and the TGI [41] was > 100 µM. For the same compound, the TGI [42] was > 100 µM, the TGI [43] was > 100 µM and the TGI [44] was > 100 µM. The TGI [46] was > 100 µM, the TGI [48] was > 100 µM and the TGI [49] was > 100 µM. For the same compound, the TGI [51] was > 100 µM, the TGI [53] was > 100 µM and the TGI [54] was > 100 µM.

`CC1=C(C(=O)NNC(=O)Cc2ccccc2)CC(C(=O)NNC(=O)Cc2ccccc2)=C(C)N1` was tested, and the TGI [55] was > 100 µM, the TGI [1] was > 100 µM and the TGI [57] was > 100 µM. The TGI [58] was > 100 µM, the TGI [2] was > 100 µM and the TGI [4] was > 100 µM. For the same compound, the TGI [5] was > 100 µM, the TGI [6] was > 100 µM and the TGI [8] was > 100 µM. For the same compound, the TGI [10] was > 100 µM, the TGI [11] was > 100 µM and the TGI [12] was > 100 µM. For the same compound, the TGI [13] was > 100 µM, the TGI [14] was > 100 µM and the TGI [15] was > 100 µM. For the same compound, the TGI [16] was > 100 µM, the TGI [17] was > 100 µM and the TGI [18] was > 100 µM. For the same compound, the TGI [19] was > 100 µM, the TGI [20] was > 100 µM and the TGI [21] was > 100 µM. The TGI [22] was > 100 µM, the TGI [24] was > 100 µM and the TGI [25] was > 100 µM. For the same compound, the TGI [27] was > 100 µM, the TGI [28] was > 100 µM and the TGI [29] was > 100 µM. For the same compound, the TGI [30] was > 100 µM, the TGI [32] was > 100 µM and the TGI [33] was > 100 µM. The TGI [36] was > 100 µM, the TGI [37] was > 100 µM and the TGI [38] was > 100 µM. The TGI [39] was > 100 µM, the TGI [59] was > 100 µM and the TGI [40] was > 100 µM. The TGI [41] was > 100 µM, the TGI [42] was > 100 µM and the TGI [43] was > 100 µM. For the same compound, the TGI [44] was > 100 µM, the TGI [45] was > 100 µM and the TGI [46] was > 100 µM. The TGI [47] was > 100 µM, the TGI [48] was > 100 µM and the TGI [49] was > 100 µM. For the same compound, the TGI [50] was > 100 µM, the TGI [51] was > 100 µM and the TGI [52] was > 100 µM. For the same compound, the TGI [53] was > 100 µM and the TGI [54] was > 100 µM.

With `COc1ccccc1-n1cnc2c1NC(C)(C)N=C2C(N)=O` the TGI [56] was > 100 µM, the TGI [1] was > 100 µM and the TGI [57] was > 100 µM. For the same compound, the TGI [58] was > 100 µM, the TGI [2] was > 100 µM and the TGI [3] was > 100 µM. The TGI [4] was > 100 µM, the TGI [5] was > 100 µM and the TGI [6] was > 100 µM. The TGI [7] was > 100 µM, the TGI [8] was > 100 µM and the TGI [9] was > 100 µM. The TGI [11] was > 100 µM, the TGI [12] was > 100 µM and the TGI [13] was > 100 µM. The TGI [14] was > 100 µM, the TGI [15] was > 100 µM and the TGI [16] was > 100 µM. The TGI [17] was > 100 µM, the TGI [18] was > 100 µM and the TGI [19] was > 100 µM. The TGI [20] was > 100 µM, the TGI [21] was > 100 µM and the TGI [22] was > 100 µM. For the same compound, the TGI [23] was > 100 µM, the TGI [24] was > 100 µM and the TGI [25] was > 100 µM. For the same compound, the TGI [26] was > 100 µM, the TGI [27] was > 100 µM and the TGI [28] was > 100 µM. The TGI [29] was > 100 µM, the TGI [30] was > 100 µM and the TGI [32] was > 100 µM. The TGI [33] was > 100 µM, the TGI [34] was > 100 µM and the TGI [35] was > 100 µM. For the same compound, the TGI [36] was > 100 µM, the TGI [37] was > 100 µM and the TGI [38] was > 100 µM. For the same compound, the TGI [39] was > 100 µM, the TGI [40] was > 100 µM and the TGI [41] was > 100 µM. For the same compound, the TGI [42] was > 100 µM, the TGI [43] was > 100 µM and the TGI [44] was > 100 µM. For the same compound, the TGI [45] was > 100 µM, the TGI [46] was > 100 µM and the TGI [47] was > 100 µM. For the same compound, the TGI [48] was > 100 µM, the TGI [49] was > 100 µM and the TGI [50] was > 100 µM. The TGI [51] was > 100 µM, the TGI [52] was > 100 µM and the TGI [53] was > 100 µM. For the same compound, the TGI [54] was > 100 µM.
